A word on the ΔTm: it is the shift of the melting midpoint relative to a reference.

For assay [1], the species on record is Homo sapiens. Nature of the assay: Stabilization of human T12 G-quadruplex DNA assessed as change in melting temparature by circular dichroism analysis. Background: Circular dichroism is widely used to follow secondary structure.
For assay [2], the species on record is Homo sapiens. Kind of assay: Stabilization of human H12 G-quadruplex DNA assessed as change in melting temparature by circular dichroism analysis.
Assay [3] is described as follows: Stabilization of TBA G-quadruplex DNA (unknown origin) assessed as change in melting temparature by circular dichroism analysis.
A short description of assay [4]: Stabilization of c-kit G-quadruplex DNA (unknown origin) assessed as change in melting temparature by circular dichroism analysis.
A short description of assay [5]: Stabilization of Bcl2 G-quadruplex DNA (unknown origin) assessed as change in melting temparature by circular dichroism analysis.

Regarding `CN1c2cccc(n2)N(C)c2cccc(n2)N(C)c2cccc(n2)N(C)c2cccc1n2`, the ΔTm in assay [1], in assay [2], in assay [3], in assay [4] and in assay [5] was 0 °C in each case.
As for `Cn1c2cccc(n2)n(C)c2cccc(n2)n(C)c2cccc(n2)n(C)c2cccc(n2)n(C)c2cccc(n2)n(C)c2cccc1n2`, the ΔTm in assay [1] amounted to 4 °C; in assay [2] it was 7 °C; in assay [3], 0 °C; in assay [4], 0 °C; in assay [5], 0 °C.
Turning to `CN1c2cccc(n2)N(C)c2cccc(n2)N(C)c2cccc(n2)N(C)c2cccc(n2)N(C)c2cccc(n2)N(C)c2cccc(n2)N(C)c2cccc1n2`, the ΔTm in assay [1], in assay [2], in assay [3], in assay [4] and in assay [5] was 0 °C each time.
For the compound `CN1c2cccc(n2)N(C)c2cccc(n2)N(C)c2cccc(n2)N(C)c2cccc(n2)N(C)c2cccc(n2)N(C)c2cccc(n2)N(C)c2cccc(n2)N(C)c2cccc1n2`, the ΔTm in assay [1], in assay [2], in assay [3], in assay [4] and in assay [5] was 0 °C each time.
Regarding `CN1c2cccc(n2)N(C)c2cccc(n2)N(C)c2cccc(n2)N(C)c2cccc(n2)N(C)c2cccc(n2)N(C)c2cccc(n2)N(C)c2cccc(n2)N(C)c2cccc(n2)N(C)c2cccc1n2`, the ΔTm in assay [1], in assay [2], in assay [3], in assay [4] and in assay [5] was 0 °C throughout.
